Assay results taken from patent US20150086530A1, “DOSING REGIMENS FOR THE TREATMENT OF POMPE DISEASE” (Amicus Therapeutics, Inc., priority 2012, published 2015).
“And” between values parts separate entries of the source, which are not always exact repeats. Equal entries are not always repeated. Where two headings read alike, the source gives them in different places.

Assay: Plasma AT2220 (1-deoxynojirimycin hydrochloride) pharmacokinetics by LC-MS/MS in Pompe patients
Format: in vivo, human
Details: for Tmax / half-life / AUC(0-t) / AUC(0-inf) / Cmax: human, plasma, oral; for half-life: Arithmetic mean (SD), read-out: Plasma AT2220 t½ (converted); for AUC(0-t): read-out: Plasma AT2220 AUC0-T; for AUC(0-inf): read-out: Plasma AT2220 AUC0-∞; for Cmax: read-out: Plasma AT2220 Cmax
Protocol: Blood samples for pharmacokinetic analysis will be collected before dosing 1-deoxynojirimycin hydrochloride and at 1 hour after administration of 1-deoxynojirimycin hydrochloride (i.e., immediately before initiation of the alglucosidase alfa infusion) and over the 24-hour period after initiation of the alglucosidase alfa infusion. Plasma and WBC GAA enzyme activity, plasma 1-deoxynojirimycin hydrochloride concentrations and plasma anti-rhGAA antibody titer will be determined from the collected blood samples at the times summarized in Table 2. A 12-lead ECG will be performed at the end of the alglucosidase alfa infusion, immediately after collection of the post-infusion blood sample.
Concentrations of 1-deoxynojirimycin hydrochloride in blood samples will be measured in plasma using a validated LC-MS/MS assay. GAA activity in plasma will be determined by a validated assay measuring enzyme activity using 4-MUG, with and without Con A. GAA protein levels will be measured by Western blotting using anti-human GAA antibody.
Non-compartmental pharmacokinetic parameters of AUC0-t, AUCinfinity, Cmax, tmax, kel and half-life will be calculated from plasma 1-deoxynojirimycin hydrochloride concentrations and plasma rhGAA enzyme levels. Pharmacokinetic parameters will be summarized by treatment using descriptive statistics. The AUC0-t, AUCinfinity ratios for GAA enzyme activity alone or after administration with 1-deoxynojirimycin hydrochloride will be calculated. Pharmacokinetic and pharmacodynamic data for those subjects receiving Myozyme® and Lumizyme® will be analyzed separately.

[1] = Cohort 3, 250 mg AT2220, Max, N=6
[2] = Cohort 3, 250 mg AT2220, Min, N=6
[3] = Cohort 3, 250 mg AT2220, individual subjects
[4] = 50 mg, 50 mg AT2220 (N = 4), Cohort 1, Geometric mean (CV %)
[5] = 100 mg, 100 mg AT2220 (N = 6), Cohort 2, Geometric mean (CV %)
[6] = 250 mg, 250 mg AT2220 (N = 6), Cohort 3, Geometric mean (CV %)
[7] = 250 mg, Cohort 3, 250 mg AT2220, Geometric Mean, N=6

linearity of plasma pharmacokinetics (50 mg and 100 mg doses): approximately linear
linearity of plasma pharmacokinetics (50 mg and 100 mg doses, listed as 1-DNJ-HCl): approximately linear PK
increase in Cmax and AUC with dose (50 mg to 100 mg): ~2 fold
Plasma AT2220 AUC0-∞ Ratio (100 mg AT2220 (N = 6) relative to 50 mg): 1.9
AUC0-∞ Ratio, plasma AT2220 (100 mg vs 50 mg dose): 1.9
Plasma AT2220 AUC0-∞ Ratio (250 mg AT2220 (N = 6) relative to 50 mg): 3.2
Plasma AT2220 AUC0-T [1]: 29670 ng·h/mL
Plasma AT2220 AUC0-∞ [1]: 29916 ng·h/mL
Plasma AT2220 Cmax [1]: 4750 ng/mL
Plasma AT2220 T½ [1]: 4.6 h
Plasma AT2220 AUC0-T [2]: 18321 ng·h/mL
Plasma AT2220 AUC0-∞ [2]: 18711 ng·h/mL
Plasma AT2220 Cmax [2]: 2090 ng/mL
Plasma AT2220 Tmax [2]: 2.0 h
Plasma AT2220 T½ [2]: 3.0 h
Plasma AT2220 Tmax [3]: 2.0 h
Tmax (both sexes, 50 mg and 100 mg doses, read-out: rate of absorption (Tmax)): 2 to 3 h
increase in mean AUC, plasma AT2220 (from 50 mg to 100 mg): 1.9 fold
increase in mean Cmax, plasma AT2220 (from 50 mg to 100 mg): 1.8 fold
half-life (50 mg, 50 mg AT2220 (N = 4), Cohort 1): 3.1 h
AUC(0-t) [4]: 6970 ng·h/mL
AUC(0-inf) [4]: 7010 ng·h/mL
Cmax [4]: 1040 ng/mL
Tmax (50 mg, 50 mg AT2220 (N = 4), Cohort 1, Median (range), read-out: Plasma AT2220 Tmax): 2 h
half-life (100 mg, 100 mg AT2220 (N = 6), Cohort 2): 3.4 h
AUC(0-t) [5]: 13000 ng·h/mL
AUC(0-inf) [5]: 13100 ng·h/mL
Cmax [5]: 1860 ng/mL
Tmax (100 mg, 100 mg AT2220 (N = 6), Cohort 2, Median (range), read-out: Plasma AT2220 Tmax): 3 h
half-life (250 mg, 250 mg AT2220 (N = 6), Cohort 3): 3.7 h
AUC(0-t) [6]: 21800 ng·h/mL
AUC(0-inf) [6]: 22100 ng·h/mL
Cmax [6]: 3150 ng/mL
Tmax (250 mg, 250 mg AT2220 (N = 6), Cohort 3, Median (range), read-out: Plasma AT2220 Tmax): 2 h
AUC(0-t) [7]: 21800 ng·h/mL
AUC(0-inf) [7]: 22100 ng·h/mL
Cmax [7]: 3150 ng/mL
Structure (SMILES): OC[C@H]1NC[C@H](O)[C@@H](O)[C@@H]1O [AT2220, (2R,3R,4R,5S)-2-hydroxymethyl-piperidine-3,4,5-triol]
Plasma AT2220 AUC0-T [3]: 19344 ng·h/mL and 29670 ng·h/mL and 22230 ng·h/mL and 18321 ng·h/mL and 24278 ng·h/mL
Plasma AT2220 AUC0-∞ [3]: 19534 ng·h/mL and 29916 ng·h/mL and 22345 ng·h/mL and 18711 ng·h/mL and 24558 ng·h/mL
Plasma AT2220 Cmax [3]: 2090 ng/mL and 2740 ng/mL and 4750 ng/mL and 3620 ng/mL and 2350 ng/mL and 4220 ng/mL
